Values after ≈ are worked out from the molar mass of the structure shown. Like-named read-outs stand apart in the source and are kept apart here.
Tests used:
[1] = Solubility in water, HPLC of saturated solutions
Protocol: Then, the obtained saturated solutions were diluted 100 times and analyzed. […] A mixture of 50% acetonitrile and 50% water was used as the mobile phase. The flow rate was 1 cm^3·min^−1. The column temperature was 30 °C. A Luna® Omega 3 µm Polar C18 100 Å column with dimensions of 150 × 4.6 mm was used. The injection volume for these samples was 50 mm^3. Each measurement was performed in triplicate, and the results were averaged.

[2] = test system: fibroblasts (NIH/3T3 cells); assay: cells
Protocol: (§1) Finally, control experiments with non-treated cells were performed.
The effect of the compounds on the viability of murine 3T3 fibroblasts was estimated using NRU assay. After the incubation time (24 h) cells, media were removed, then to each well we added 100 µL of medium containing neutral red (50 µg/mL). […] The plates were shaken for 10 min at room temperature. Then, the absorption at 540 nm was measured using a microplate reader (Biosan). The results were calculated for each sample concentration as a percentage of medium control. The values are presented as mean ± standard deviation of three independent experiments.

MTT viability assay = conditions: human, HaCaT keratinocytes
Protocol: as §1
(§2) We applied an assay based on the reduction of methyl thiazol tetrazolium bromide (MTT) to assess the effect of the compounds on the viability of HaCaT cells. […] After that, the cells were lysed with a solution of DMSO:ethanol (1:1 v/v). The absorbance of the reduced formazan dye product was read at 560 nm in a microplate reader (Biosan). The results were calculated for each sample concentration as a percentage of medium control. The values are presented as mean ± standard deviation of three independent experiments.

[3] = test system: human keratinocytes (HaCaT cells); assay: MTT viability assay; conditions: for IC50: HaCaT, 24 h; for Viability of HaCaT after 48 h Treatment with 0.4 mM IL or SA: calculated as percentage of medium control, in %
Protocol: as §1, §2

[4] = TG, air atmosphere, 10 °C·min^−1
[5] = Solubility in typical solvents, modified Vogel method; conditions: 25 °C; for Solubility in Water (63.1): ET(30) in parentheses
From the text: For this purpose, dimethyl sulfoxide, ethanol, chloroform, ethyl acetate, diethyl ether, toluene, and n-hexane were used as solvents.

IL-6 = IL-6 ELISA in supernatant of LPS-stimulated HaCaT cells; assay type: cell-based, human; conditions: 12 h pretreatment then LPS 12 h
Protocol: HaCaT cells were seeded in a 24-well plate at a density of 5 × 10^4 cells/well and maintained in DMEM high glucose with 10% FBS until an 80% confluent monolayer was reached. […] Control experiments with LPS-treated cells only were conducted. Controls with cells treated with neither compounds nor LPS were also performed. After that, the cell culture supernatant was collected, and the IL-6 cytokine was measured using an ELISA kit.

[6] = NIH/3T3, 24 h, neutral red uptake
[7] = read-out: IC50 (in mM), NIH/3T3, 24 h, neutral red uptake
[8] = the two tested concentrations (1 and 10 µM)

SMILES: O=C(O)c1ccccc1O [SA, Salicylic acid, reference compound]
- Solubility in Water at 25 °C ([1]; amount of active compound (SA) per dm^3): 3.852 ± 0.004 g SA·dm^−3
- solubility ([1]; water): 3852 ± 4 µg/mL (≈ 27.9 mM)
- IC50 ([2]; Mus musculus, NIH3T3, 24 h): 300 ± 6 µg/mL
- IC50 ([2]; Mus musculus, NIH3T3, 24 h, read-out: IC50 (in mM)): ~2.2 mM
- viability at 48 h, 0.4 mM (MTT viability assay): 71 ± 3%
- IC50 ([3]; Homo sapiens): 200 ± 100 µg/mL
- IC50 ([3]; Homo sapiens, read-out: IC50 (in mM)): ~1.6 mM
- Tonset, the onset of the thermal degradation [4]: 171.3 °C
- Solubility in Chloroform (39.1) [5]: +/− (partially soluble 33–100 mg·cm^−3)
- Solubility in DMSO (45.1) [5]: + (soluble >100 mg·cm^−3)
- Solubility in Diethyl ether (34.5) [5]: + (soluble >100 mg·cm^−3)
- Solubility in Ethanol (51.9) [5]: + (soluble >100 mg·cm^−3)
- Solubility in Ethyl Acetate (38.1) [5]: + (soluble >100 mg·cm^−3)
- Solubility in Toluene (33.9) [5]: +/− (partially soluble 33–100 mg·cm^−3)
- Solubility in n-Hexane (31.0) [5]: − (insoluble < 33 mg·cm^−3)
- Solubility in Water (63.1) [5]: +/− (partially soluble 33–100 mg·cm^−3)

SMILES: CCOC(=O)[C@@H](N)CC(C)C.O=C(O)c1ccccc1O [[LeuOEt][SA], L-leucine ethyl ester salicylate]
- IC50 [2, 6]: 894 ± 12 µg/mL
- IC50 [2, 7]: ~3 mM
- Level of IL-6 in LPS-stimulated HaCaT (IL-6; 1 µM): no effect or negligible inhibition of the IL-6 production

SMILES: CCOC(=O)[C@@H](N)Cc1ccccc1.O=C(O)c1ccccc1O [[PheOEt][SA], L-phenylalanine ethyl ester salicylate]
- Solubility in Water at 25 °C ([1]; g of compound per dm^3): 9.732 ± 0.010 g·dm^−3
- IC50 [2, 6]: 1062 ± 15 µg/mL
- IC50 [2, 7]: ~3.2 mM
- Viability of HaCaT after 48 h Treatment with 0.4 mM IL or SA [3]: 105 ± 4
- IC50 ([3]; MTT): 2200 ± 150 µg/mL
- IC50 ([3]; read-out: IC50 (in mM), MTT): ~6.6 mM
- Level of IL-6 in LPS-stimulated HaCaT (IL-6; [8]): comparable to those produced by 1 µM SA
- Tonset, the onset of the thermal degradation [4]: 181.1 °C
- Solubility in Chloroform (39.1) [5]: + (soluble >100 mg·cm^−3)
- Solubility in DMSO (45.1) [5]: + (soluble >100 mg·cm^−3)
- Solubility in Diethyl ether (34.5) [5]: + (soluble >100 mg·cm^−3)
- Solubility in Ethanol (51.9) [5]: +/− (partially soluble 33–100 mg·cm^−3)
- Solubility in Ethyl Acetate (38.1) [5]: +/− (partially soluble 33–100 mg·cm^−3)
- Solubility in Toluene (33.9) [5]: − (insoluble < 33 mg·cm^−3)
- Solubility in n-Hexane (31.0) [5]: − (insoluble < 33 mg·cm^−3)
- Solubility in Water (63.1) [5]: − (insoluble < 33 mg·cm^−3)

SMILES: CCCOC(=O)[C@@H](N)Cc1ccccc1.O=C(O)c1ccccc1O [[PheOPr][SA], L-phenylalanine propyl ester salicylate]
- Solubility in Water at 25 °C ([1]; g of compound per dm^3): 1.143 ± 0.001 g·dm^−3
- IC50 [2, 6]: 662 ± 9 µg/mL
- IC50 [2, 7]: ~1.9 mM
- Viability of HaCaT after 48 h Treatment with 0.4 mM IL or SA [3]: 93 ± 4
- IC50 ([3]; MTT): 650 ± 100 µg/mL
- IC50 ([3]; read-out: IC50 (in mM), MTT): ~1.9 mM
- Level of IL-6 in LPS-stimulated HaCaT (IL-6; 1 µM): completely protected from inflammation
- Level of IL-6 in LPS-stimulated HaCaT (IL-6; 10 μM): no effect or negligible inhibition of the IL-6 production
- Tonset, the onset of the thermal degradation [4]: 185.0 °C
- Solubility in Chloroform (39.1) [5]: + (soluble >100 mg·cm^−3)
- Solubility in DMSO (45.1) [5]: + (soluble >100 mg·cm^−3)
- Solubility in Diethyl ether (34.5) [5]: + (soluble >100 mg·cm^−3)
- Solubility in Ethanol (51.9) [5]: +/− (partially soluble 33–100 mg·cm^−3)
- Solubility in Ethyl Acetate (38.1) [5]: +/− (partially soluble 33–100 mg·cm^−3)
- Solubility in Toluene (33.9) [5]: − (insoluble < 33 mg·cm^−3)
- Solubility in n-Hexane (31.0) [5]: − (insoluble < 33 mg·cm^−3)
- Solubility in Water (63.1) [5]: − (insoluble < 33 mg·cm^−3)

SMILES: CCCCOC(=O)[C@@H](N)C(C)C.O=C(O)c1ccccc1O [[ValOBu][SA], L-valine butyl ester salicylate]
- Solubility in Water at 25 °C ([1]; g of compound per dm^3): 14.490 ± 0.014 g·dm^−3
- IC50 [2, 6]: 309 ± 9 µg/mL
- IC50 [2, 7]: ~1 mM
- Viability of HaCaT after 48 h Treatment with 0.4 mM IL or SA [3]: 74 ± 1
- IC50 ([3]; MTT): 600 ± 200 µg/mL
- IC50 ([3]; read-out: IC50 (in mM), MTT): ~1.9 mM
- Tonset, the onset of the thermal degradation [4]: 171.8 °C
- Solubility in Chloroform (39.1) [5]: + (soluble >100 mg·cm^−3)
- Solubility in DMSO (45.1) [5]: + (soluble >100 mg·cm^−3)
- Solubility in Diethyl ether (34.5) [5]: + (soluble >100 mg·cm^−3)
- Solubility in Ethanol (51.9) [5]: +/− (partially soluble 33–100 mg·cm^−3)
- Solubility in Ethyl Acetate (38.1) [5]: + (soluble >100 mg·cm^−3)
- Solubility in Toluene (33.9) [5]: + (soluble >100 mg·cm^−3)
- Solubility in n-Hexane (31.0) [5]: − (insoluble < 33 mg·cm^−3)
- Solubility in Water (63.1) [5]: +/− (partially soluble 33–100 mg·cm^−3)

SMILES: CCOC(=O)[C@@H](N)C(C)C.O=C(O)c1ccccc1O [[ValOEt][SA], L-valine ethyl ester salicylate]
- Solubility in Water at 25 °C ([1]; g of compound per dm^3): 26.070 ± 0.026 g·dm^−3
- IC50 [2, 6]: 700 ± 8 µg/mL
- IC50 [2, 7]: ~2.5 mM
- Viability of HaCaT after 48 h Treatment with 0.4 mM IL or SA [3]: 74 ± 2
- IC50 ([3]; MTT): 600 ± 10 µg/mL
- IC50 ([3]; read-out: IC50 (in mM), MTT): ~2.1 mM
- Level of IL-6 in LPS-stimulated HaCaT (IL-6; [8]): comparable to those produced by 1 µM SA
- Tonset, the onset of the thermal degradation [4]: 157.6 °C
- Solubility in Chloroform (39.1) [5]: + (soluble >100 mg·cm^−3)
- Solubility in DMSO (45.1) [5]: + (soluble >100 mg·cm^−3)
- Solubility in Diethyl ether (34.5) [5]: + (soluble >100 mg·cm^−3)
- Solubility in Ethanol (51.9) [5]: + (soluble >100 mg·cm^−3)
- Solubility in Ethyl Acetate (38.1) [5]: + (soluble >100 mg·cm^−3)
- Solubility in Toluene (33.9) [5]: + (soluble >100 mg·cm^−3)
- Solubility in n-Hexane (31.0) [5]: − (insoluble < 33 mg·cm^−3)
- Solubility in Water (63.1) [5]: +/− (partially soluble 33–100 mg·cm^−3)

SMILES: CCCOC(=O)[C@@H](N)C(C)C.O=C(O)c1ccccc1O [[ValOPr][SA], L-valine propyl ester salicylate]
- Solubility in Water at 25 °C ([1]; g of compound per dm^3): 21.789 ± 0.024 g·dm^−3
- IC50 [2, 6]: 1310 ± 17 µg/mL
- Viability of HaCaT after 48 h Treatment with 0.4 mM IL or SA [3]: 74 ± 2
- IC50 ([3]; MTT): 500 ± 50 µg/mL
- IC50 ([3]; read-out: IC50 (in mM), MTT): ~1.8 mM
- Tonset, the onset of the thermal degradation [4]: 177.9 °C
- Solubility in Chloroform (39.1) [5]: + (soluble >100 mg·cm^−3)
- Solubility in DMSO (45.1) [5]: + (soluble >100 mg·cm^−3)
- Solubility in Diethyl ether (34.5) [5]: + (soluble >100 mg·cm^−3)
- Solubility in Ethanol (51.9) [5]: + (soluble >100 mg·cm^−3)
- Solubility in Ethyl Acetate (38.1) [5]: + (soluble >100 mg·cm^−3)
- Solubility in Toluene (33.9) [5]: + (soluble >100 mg·cm^−3)
- Solubility in n-Hexane (31.0) [5]: − (insoluble < 33 mg·cm^−3)
- Solubility in Water (63.1) [5]: +/− (partially soluble 33–100 mg·cm^−3)

SMILES: CC(C)OC(=O)[C@@H](N)C(C)C.O=C(O)c1ccccc1O [[ValOiPr][SA], L-valine isopropyl ester salicylate]
- Solubility in Water at 25 °C ([1]; g of compound per dm^3): 18.458 ± 0.018 g·dm^−3
- IC50 [2, 6]: 658 ± 7 µg/mL
- IC50 [2, 7]: ~2.2 mM
- Viability of HaCaT after 48 h Treatment with 0.4 mM IL or SA [3]: 66 ± 2
- IC50 ([3]; MTT): 900 ± 50 µg/mL
- IC50 ([3]; read-out: IC50 (in mM), MTT): ~3.1 mM
- Level of IL-6 in LPS-stimulated HaCaT (IL-6; 10 μM): no effect or negligible inhibition of the IL-6 production
- Tonset, the onset of the thermal degradation [4]: 163.1 °C
- Solubility in Chloroform (39.1) [5]: + (soluble >100 mg·cm^−3)
- Solubility in DMSO (45.1) [5]: + (soluble >100 mg·cm^−3)
- Solubility in Diethyl ether (34.5) [5]: +/− (partially soluble 33–100 mg·cm^−3)
- Solubility in Ethanol (51.9) [5]: + (soluble >100 mg·cm^−3)
- Solubility in Ethyl Acetate (38.1) [5]: +/− (partially soluble 33–100 mg·cm^−3)
- Solubility in Toluene (33.9) [5]: + (soluble >100 mg·cm^−3)
- Solubility in n-Hexane (31.0) [5]: − (insoluble < 33 mg·cm^−3)
- Solubility in Water (63.1) [5]: +/− (partially soluble 33–100 mg·cm^−3)

Reference: publication PMC8746858 (Molecules, 2021)
